Measurements published in US10508992B2, “Method and probe for monitoring oxygen status in live mammalian cells” (University College Cork, National University of Ir Cork, priority 2010, dated 2019).

Tested on: MEF cells
Conditions: MEF cells loaded with probe 10 ug/ml, 12 h; different concentrations, added at 30 min, FIG. 6
Method: The plate was then measured on a Victor 2 reader as described in Example 4. Initially it was monitored for ˜30 min to reach O2 and temperature equilibrium and obtain basal signals, then quickly withdrawn from the reader, compounds were added to the cells (10 ul of 10× stock solution in each well) and monitoring was resumed. Measured TR-F intensity signals for each sample well were converted into phosphorescence lifetime (t) values and plotted. Control samples and repetitive additions were incorporated as appropriate.

N#CC(C#N)=NNc1ccc(OC(F)(F)F)cc1 [FCCP]
response of probe phosphorescence lifetime to stimulation: Increases in probe lifetime
